Patent publication US11213511B2, “Composition for preventing or treating SARS coronavirus 2 infection disease” (priority 2020, dated 2022)
Values joined by “and” are separate entries in the source; they are usually repeats but may differ in a detail not shown here. Identical values can stand only once. Like-named read-outs stand apart in the source and are kept apart here.

Tests used:
[1] = test system: SARS CoV-2 (NCCP-43326); type: cell-based
[2] = test system: SARS CoV-2 (NCCP-43326); assay: Observation of cell morphology according to medicament treatment; type: cell-based; details: 10 to 20 μM, VERO cell, FIG. 3
[3] = biological target: SARS-CoV-2 3CL protease (Severe acute respiratory syndrome coronavirus 2, UniProt P0DTD1); assay: biochemical; details: for inhibition at 30 µM: read-out: activity of 3CL protease inhibited
[4] = biological target: T1, ACE2 and SARS-CoV-2 Spike S1 protein binding (UniProt P0DTC2+Q9BYF1); assay: biochemical
T1 construct: Spike S1, Fc fusion, Avi-tag, Biotin Labeled (SARS-CoV-2) (BPS Bioscience, 100679); Fc fusion; Avi-tag (biotin labeled); His-Tag (Eu-labeled); purchased BPS Bioscience 100705 (ACE2); 100679 (Spike S1)
T1 sequence (Q9BYF1 18-740, one chain of several): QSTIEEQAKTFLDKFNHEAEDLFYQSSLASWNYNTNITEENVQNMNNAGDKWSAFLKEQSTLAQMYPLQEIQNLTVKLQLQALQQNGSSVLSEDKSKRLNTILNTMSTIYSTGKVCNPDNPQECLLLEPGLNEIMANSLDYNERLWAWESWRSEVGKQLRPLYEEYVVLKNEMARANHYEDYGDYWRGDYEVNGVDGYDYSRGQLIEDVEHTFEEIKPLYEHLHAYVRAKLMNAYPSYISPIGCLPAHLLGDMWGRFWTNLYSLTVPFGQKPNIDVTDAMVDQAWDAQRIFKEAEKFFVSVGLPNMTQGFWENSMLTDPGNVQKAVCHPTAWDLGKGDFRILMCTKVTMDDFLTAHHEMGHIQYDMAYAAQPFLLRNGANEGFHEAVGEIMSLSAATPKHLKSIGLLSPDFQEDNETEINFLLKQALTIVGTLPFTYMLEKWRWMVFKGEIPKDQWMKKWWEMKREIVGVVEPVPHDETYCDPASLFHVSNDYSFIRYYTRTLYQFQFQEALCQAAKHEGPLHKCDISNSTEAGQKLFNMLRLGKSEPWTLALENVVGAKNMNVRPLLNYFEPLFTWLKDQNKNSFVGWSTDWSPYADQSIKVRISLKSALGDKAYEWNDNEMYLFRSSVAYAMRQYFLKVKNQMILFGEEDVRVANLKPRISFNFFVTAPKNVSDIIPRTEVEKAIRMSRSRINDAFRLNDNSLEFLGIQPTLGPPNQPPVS

[5] = test system: severe acute respiratory syndrome coronavirus 2; assay: Medicament efficacy of Sulfinpyrazone in SARS coronavirus 2 infected animal model (Example 7); type: in vivo, Syrian Hamster; details: 50 MPK (50 mg/kg/day), PO twice daily, 4 days of continuous administration, vs virus alone infected group
[6] = test system: VERO cell; details: for Viability: 72 hours, MTT; for cell survival: 10 to 20 μM
[7] = test system: severe acute respiratory syndrome coronavirus 2; design: species or system Syrian Hamster; details: hamster, in vivo

Question: What does the source list for `O=C1C(CC[S+]([O-])c2ccccc2)C(=O)N(c2ccccc2)N1c1ccccc1` (racemic) [Sulfinpyrazone, 1,2-diphenyl-4-[2-(phenylsulfinyl)ethyl]pyrazolidine-3,5-dione]?
Answer: CPE Reduction (%) [1]: 33.1 ± 7.0% and 40.7 ± 8.0%; change in cell morphology of virus-infected cells [2]: morphology change was small; activity at 0.001 µM [3]: 96%; activity at 0.003 µM [3]: 104%; activity at 0.01 µM [3]: 100%; activity at 0.03 µM [3]: 103%; activity at 0.1 µM [3]: 103%; activity at 0.3 µM [3]: 102%; activity at 1 µM [3]: 99%; activity at 3 µM [3]: 92%; activity at 10 µM [3]: 90%; activity at 30 µM [3]: 82%; % Activity ([3]; 0.001 µM): 101%; % Activity ([3]; 0.003 µM): 101%; % Activity ([3]; 0.01 µM): 101%; % Activity ([3]; 0.3 µM): 94%; % Activity ([3]; 1 µM): 98%; % Activity ([3]; 3 µM): 95%; % Activity ([3]; 10 µM): 95%; % Activity ([3]; 30 µM): 80%; inhibition at 30 µM [3]: ~20%; TR-FRET ratio [4]: 0.96 and 0.97 and 0.95 and 0.93 and 0.94; activity at 0.002 µM [4]: 96%; activity at 0.005 µM [4]: 97%; activity at 0.014 µM [4]: 100%; activity at 0.041 µM [4]: 98%; activity at 0.123 µM [4]: 100%; activity at 0.37 µM [4]: 99%; activity at 1.111 µM [4]: 101%; activity at 3.333 µM [4]: 98%; activity at 10 µM [4]: 100%; activity at 30 µM [4]: 99%; efficacy in inhibiting the binding of ACE2 and Spike S1 proteins [4]: no efficacy; % Activity ([4]; 0.002 µM): 95%; % Activity ([4]; 10 µM): 95%; Gross pneumonia lesion amelioration percentage (%) [5]: 15.6%; Viability ([6]; 10 μM): 108.3 ± 0.4%; Viability ([6]; 20 μM): 99.6 ± 7.3%; cell survival [6]: excellent cell survival

Question: `CCC(CC)COC(=O)[C@H](C)N[P@](=O)(OC[C@H]1O[C@@](C#N)(c2ccc3c(N)ncnn23)[C@H](O)[C@@H]1O)Oc1ccccc1` [Remdesivir] was tested. Which gross cure rate [7] did it give?
Answer: The gross cure rate was 44.3%.

Question: Which results are given for `COc1cc(C(=O)NS(=O)(=O)c2ccccc2C)ccc1Cc1cn(C)c2ccc(NC(=O)OC3CCCC3)cc12` [Zafirlukast, cyclopentyl3-{2-methoxy-4-[(o-tolylsulfonyl)carbamoyl]benzyl}-1-methyl-1H-indol-5-ylcarbamate]?
Answer: CPE Reduction (%) [1]: 60.1 ± 7.1% and 75.6 ± 3.9%; change in cell morphology of virus-infected cells [2]: morphology change was small; activity at 0.001 µM [3]: 100%; activity at 0.003 µM [3]: 95%; activity at 0.01 µM [3]: 94%; activity at 0.03 µM [3]: 97%; activity at 0.1 µM [3]: 95%; activity at 0.3 µM [3]: 95%; activity at 1 µM [3]: 90%; activity at 3 µM [3]: 89%; activity at 10 µM [3]: 78%; activity at 30 µM [3]: 52%; % Activity ([3]; 0.003 µM): 98%; % Activity ([3]; 0.01 µM): 103%; % Activity ([3]; 0.03 µM): 99%; % Activity ([3]; 0.3 µM): 98%; % Activity ([3]; 3 µM): 87%; % Activity ([3]; 10 µM): 77%; % Activity ([3]; 30 µM): 55%; inhibition at 30 µM [3]: ≥ 45%; activity at 0.002 µM [4]: 91%; activity at 0.005 µM [4]: 96%; activity at 0.014 µM [4]: 92%; activity at 0.041 µM [4]: 99%; activity at 0.123 µM [4]: 97%; activity at 0.37 µM [4]: 101%; activity at 1.111 µM [4]: 93%; activity at 3.333 µM [4]: 102%; activity at 10 µM [4]: 96%; activity at 30 µM [4]: 95%; efficacy in inhibiting the binding of ACE2 and Spike S1 proteins [4]: no efficacy; % Activity ([4]; 0.005 µM): 94%; % Activity ([4]; 10 µM): 98%; amelioration effects in the gross lung lesion [7]: very excellent amelioration effects; amelioration in bilateral pneumonia, pulmonary edema, and pulmonary bleeding aspects ([7]; po): excellent amelioration; treatment effect compared to the control medicament Remdesivir ([7]; po): superior treatment effect; Viability ([6]; 10 μM): 109.7 ± 2.8%; Viability ([6]; 20 μM): 89.3 ± 0.7%; cell survival [6]: excellent cell survival
